Laboratory results taken from patent US20240197652A1, “KETAMINE IN THE TREATMENT OF […]” (Awakn LS Europe Holdings Limited, priority 2021, published 2024).

Key:
Assay type in all cases: in vivo, human
[1] = test system: subjects with binge eating disorder; assay: Binge Eating Scale (BES), Example 8; conditions: for Binge Eating Scale score at 2-week follow up / BES classification at two-week follow up: after 100 mg racemic ketamine sublingual; for BES classification, pre-administration / Binge Eating Scale score, pre-administration: baseline before 100 mg racemic ketamine sublingual; for % change in Binge Eating Scale: pre-administration to 2-week follow up, 100 mg racemic ketamine sublingual
Source text: Binge eating disorder may be characterised as being mild, moderate, and severe. The severity of binge eating disorder may be determined by the Binge Eating Scale (BES), wherein a score below 17 indicates no binge eating disorder, a score of between 18-20 indicates mild binge eating disorder, a score of between 21-27 indicates moderate binge eating disorder, and a score above 27 indicates severe binge eating disorder (Grupski et al., 2013), or based on ordinary skill. In embodiments, a patient may have binge eating disorder characterised as being mild. In other embodiments, a patient may have binge eating disorder characterised as being moderate. In other embodiments, a patient may have binge eating disorder characterised as being severe.
A study was completed on the use of ketamine to treat binge eating disorder. Subjects were assessed for binge eating disorder using the Binge Eating Scale (BES), and included if they received a BES score greater than 15. Three subjects in total were included (BE1-BE3, and interchangeably on FIGS. 5 and 6 as BED1-BED3, these being the same subjects). All three were administered sublingual lozenges comprising 100 mg of racemic ketamine.
The treatment protocol commenced in substantially the same way as disclosed in the ketamine in subjects with gambling disorder study completed in EXAMPLE 7, with the exceptions outlined as follows: No behavioural tasks were completed. Blood samples collected every 10 minutes from the time of administration to 90 minutes post-administration were additionally analysed for leptin and ghrelin. Self-report measures included the Binge Eating Scale, the Adult Attachment Interview (AAI), a 20 question interview about the subject's recollections of their childhood (Sykes and Turner, 2015); the Childhood Trauma Questionnaire; the Morningness-Eveningness Questionnaire (MEQ), a 19-item questionnaire designed to assess when a respondent prefers to wake up or start sleep (American Thoracic Society, 2022); the DSM-5 Binge Eating Disorder diagnostic criteria; and the SPSRQ.

subjects with CSBD = assay: Hours of pornography viewed per day, Example 10; conditions: for hours of pornography watched daily at 2-week follow up: after 100 mg racemic ketamine sublingual; for hours of pornography watched daily, pre-administration: baseline before 100 mg racemic ketamine sublingual; for % change in hours of pornography viewed: pre-administration to 2-week follow up, 100 mg racemic ketamine sublingual
Description: A study was completed on the use of ketamine to treat CSBD. Subjects were assessed for CSBD using the Problematic Pornography Use Scale (PPUS) and were included if they received an PPUS score greater than 3. Three subjects in total were included (CSB1-CSB3). All three were administered sublingual lozenges comprising 100 mg of racemic ketamine.
The treatment protocol commenced in the same way as disclosed in the ketamine in subjects with gambling disorder study completed in EXAMPLE 7, with the exceptions outlined as follows: No behavioural tasks were completed. Self-report measures completed during EXAMPLE 10 included the Emotional Intimacy Measure, the Childhood Trauma Questionnaire, the Generalised Anxiety Disorder-7 (GAD-7), the Morningness-Eveningness Questionnaire (MEQ), and the Problematic Pornography Questionnaire (PPQ), the Acceptance and Action Questionnaire, and the Psychological and Interpersonal Relationship Scales (PAIRS).

[2] = test system: subjects of EXAMPLES 7-10; assay: Beck Depression Inventory (BDI), subjects of Examples 7-10; conditions: for BDI Score at the one-week follow up / Depression Severity at the One Week Follow Up (BDI): after 100 mg racemic ketamine sublingual; for BDI Score pre-treatment / Depression Severity Pre-Treatment (BDI): baseline before 100 mg racemic ketamine sublingual; for % Change in BDI score: pre-treatment to one-week follow up, 100 mg racemic ketamine sublingual
Description: The study spanned a total of 30 days (not counting initial contact and prescreening). Prescreening of all subjects was conducted by phone, and subjects recorded self-report measures, including the Sensitivity to Punishment and Sensitivity to Reward Questionnaire (SPSRQ) and the Gambling Related Cognitions Questionnaire. Prior to beginning treatment, each subject completed the Beck Depression Inventory (BDI) to determine a baseline depression score. Total scores of 0-13 are minimal, 14-19 are mild, 20-28 are moderate, and 29-63 are severe (Beck, Steer, and Brown, 1996).

[3] = test system: subjects with gambling disorder; assay: Adverse events, Ketamine Side Effect Tool (KSET), Example 7; conditions: five gambling disorder subjects; 100 mg racemic ketamine sublingual
Description: Adverse events were assessed with the Ketamine Side Effect Tool (KSET).

[4] = test system: subjects with gaming disorder; assay: Adverse events, KSET, Example 9; conditions: three gaming disorder subjects; 100 mg racemic ketamine sublingual
[5] = subject BE1 (binge eating disorder)
[6] = subject BE2 (binge eating disorder)
[7] = subject BE3 (binge eating disorder)

With `CNC1(c2ccccc2Cl)CCCCC1=O` (racemic) [ketamine, 2-(2-chlorophenyl)-2-(methylamino)-cyclohexanone] the “Binge Eating Scale score at 2-week follow up” value ([1]; subject BE1) was 24, the “BES classification, pre-administration” value ([1]; subject BE1) was “moderate binge eating disorder (a score of between 21-27 indicates moderate binge eating disorder)” and the “Binge Eating Scale score, pre-administration” value ([1]; subject BE1) was 26. The “BES classification at two-week follow up” value ([1]; subject BE1, moderate binge eating disorder pre-administration) was “remained so”, the “% change in Binge Eating Scale” value ([1]; subject BE1) was −7.69% and the “Binge Eating Scale score at 2-week follow up” value ([1]; subject BE2) was 35. The “Binge Eating Scale score, pre-administration” value ([1]; subject BE2) was 32, the “% change in Binge Eating Scale” value ([1]; subject BE2) was “+9.38%” and the “Binge Eating Scale score at 2-week follow up” value ([1]; subject BE3) was 28. The “BES classification, pre-administration” value ([1]; subject BE3) was “severe binge eating disorder (a score above 27 indicates severe binge eating disorder)”, the “Binge Eating Scale score, pre-administration” value ([1]; subject BE3) was 42 and the “% change in Binge Eating Scale” value ([1]; subject BE3) was −33.33%. The “BES classification at two-week follow up” value ([1]; subject BE3, severe binge eating disorder pre-administration) was “one point away from the moderate classification”, the “hours of pornography watched daily at 2-week follow up” value (shortened to “hours … at 2-week follow up”) (subjects with CSBD; subject CSB1) was 0.5 h and the “hours of pornography watched daily, pre-administration” value (shortened to “hours … pre-administration”) (subjects with CSBD; subject CSB1) was 2 h. The “% change in hours of pornography viewed” value (subjects with CSBD; subject CSB1) was −75%, the “hours … at 2-week follow up” value (subjects with CSBD; subject CSB2) was 3 h and the “hours … pre-administration” value (subjects with CSBD; subject CSB2) was 4 h. For the same molecule, the “% change in hours of pornography viewed” value (subjects with CSBD; subject CSB2) was −25%, the “hours … at 2-week follow up” value (subjects with CSBD; subject CSB3) was 1 h and the “hours … pre-administration” value (subjects with CSBD; subject CSB3) was 1 h. The “BDI Score at the one-week follow up” value [2, 5] was 2, the “BDI Score pre-treatment” value [2, 5] was 9 and the “% Change in BDI score” value [2, 5] was −77.78%. The “BDI Score at the one-week follow up” value [2, 6] was 15, the “BDI Score pre-treatment” value [2, 6] was 19 and the “% Change in BDI score” value [2, 6] was −21.05%. The “BDI Score at the one-week follow up” value [2, 7] was 1, the “BDI Score pre-treatment” value [2, 7] was 21 and the “% Change in BDI score” value [2, 7] was −95.24%. For the same molecule, the “Depression Severity at the One Week Follow Up (BDI)” value ([2]; subject BE3) was “Minimal (Total scores of 0-13 are minimal)”, the “Depression Severity Pre-Treatment (BDI)” value ([2]; subject BE3) was “Moderate (20-28 are moderate)” and the “BDI Score at the one-week follow up” value ([2]; subject CSB1 (CSBD)) was 9. The “BDI Score pre-treatment” value ([2]; subject CSB1 (CSBD)) was 24, the “% Change in BDI score” value ([2]; subject CSB1 (CSBD)) was −62.50% and the “Depression Severity at the One Week Follow Up (BDI)” value ([2]; subject CSB1) was “Minimal (Total scores of 0-13 are minimal)”. For the same molecule, the “Depression Severity Pre-Treatment (BDI)” value ([2]; subject CSB1) was “Moderate (20-28 are moderate)”, the “BDI Score at the one-week follow up” value ([2]; subject CSB2 (CSBD)) was 12 and the “BDI Score pre-treatment” value ([2]; subject CSB2 (CSBD)) was 14. For the same molecule, the “% Change in BDI score” value ([2]; subject CSB2 (CSBD)) was −14.29%, the “Depression Severity at the One Week Follow Up (BDI)” value ([2]; subject CSB2) was “Minimal (Total scores of 0-13 are minimal)” and the “Depression Severity Pre-Treatment (BDI)” value ([2]; subject CSB2) was “Mild (14-19 are mild)”. The “BDI Score at the one-week follow up” value ([2]; subject CSB3 (CSBD)) was 7, the “BDI Score pre-treatment” value ([2]; subject CSB3 (CSBD)) was 19 and the “% Change in BDI score” value ([2]; subject CSB3 (CSBD)) was −63.16%. The “Depression Severity at the One Week Follow Up (BDI)” value ([2]; subject CSB3) was “Minimal (Total scores of 0-13 are minimal)”, the “Depression Severity Pre-Treatment (BDI)” value ([2]; subject CSB3) was “Mild (14-19 are mild)” and the “BDI Score at the one-week follow up” value ([2]; subject G1 (gambling disorder)) was 9. The “BDI Score pre-treatment” value ([2]; subject G1 (gambling disorder)) was 8, the “% Change in BDI score” value ([2]; subject G1 (gambling disorder)) was “+12.5%” and the “BDI Score at the one-week follow up” value ([2]; subject G2 (gambling disorder)) was 24. The “BDI Score pre-treatment” value ([2]; subject G2 (gambling disorder)) was 21, the “% Change in BDI score” value ([2]; subject G2 (gambling disorder)) was “+14.29%” and the “BDI Score at the one-week follow up” value ([2]; subject G3 (gambling disorder)) was 14. For the same molecule, the “BDI Score pre-treatment” value ([2]; subject G3 (gambling disorder)) was 17, the “% Change in BDI score” value ([2]; subject G3 (gambling disorder)) was −17.65% and the “BDI Score at the one-week follow up” value ([2]; subject G4 (gambling disorder)) was 6. For the same molecule, the “BDI Score pre-treatment” value ([2]; subject G4 (gambling disorder)) was 8, the “% Change in BDI score” value ([2]; subject G4 (gambling disorder)) was −25% and the “BDI Score at the one-week follow up” value ([2]; subject G5 (gambling disorder)) was 11. For the same molecule, the “BDI Score pre-treatment” value ([2]; subject G5 (gambling disorder)) was 12, the “% Change in BDI score” value ([2]; subject G5 (gambling disorder)) was −8.33% and the “BDI Score at the one-week follow up” value ([2]; subject IG1 (gaming disorder)) was 10. For the same molecule, the “BDI Score pre-treatment” value ([2]; subject IG1 (gaming disorder)) was 15, the “% Change in BDI score” value ([2]; subject IG1 (gaming disorder)) was −33.33% and the “Depression Severity at the One Week Follow Up (BDI)” value ([2]; subject IG1) was “Minimal (Total scores of 0-13 are minimal)”. For the same molecule, the “Depression Severity Pre-Treatment (BDI)” value ([2]; subject IG1) was “Mild (14-19 are mild)”, the “BDI Score at the one-week follow up” value ([2]; subject IG2 (gaming disorder)) was 8 and the “BDI Score pre-treatment” value ([2]; subject IG2 (gaming disorder)) was 4. For the same molecule, the “% Change in BDI score” value ([2]; subject IG2 (gaming disorder)) was “+100%”, the “BDI Score at the one-week follow up” value ([2]; subject IG3 (gaming disorder)) was 9 and the “BDI Score pre-treatment” value ([2]; subject IG3 (gaming disorder)) was 10. The “% Change in BDI score” value ([2]; subject IG3 (gaming disorder)) was −10%, the “course of adverse events” value [3] was “All adverse events were transient, and resolved two hours post-lozenge” and the overall tolerability [3] was “well-tolerated, with no drop-outs”. For the same molecule, the “unexpected adverse reactions (KSET)” value [3] was “No unexpected adverse reactions were observed”, the “course of adverse events” value [4] was “All adverse events were transient, and resolved two hours post-lozenge” and the overall tolerability [4] was “well-tolerated, with no drop-outs”. For the same molecule, the “unexpected adverse reactions (KSET)” value [4] was “No unexpected adverse reactions were observed”.
